Measured values: US20240116922A1, “IMIDAZO[1,2-A]PYRIDINE DERIVATIVES AS IRAK4 INHIBITORS AND THEIR USE IN THE TREATMENT OF DISEASE” (BIOGEN MA INC., priority 2020, published 2024)
Values after ≈ are worked out from the molar mass of the structure shown. Where a name gives a salt, the structure may show the parent alone. Blank lines part the entries; values can stand above or below the compound they belong to.

Assays:
[1] = molecular target: IRAK4 (Homo sapiens (Human), UniProt Q9NWZ3); test: IRAK4 MSD biochemical assay (2-hour 1 mM ATP); conditions: 0.1 nM IRAK4, 1 mM ATP, 2 hour at room temperature
[2] = molecular target: MDR1 (Homo sapiens (Human), UniProt P08183); test: in vitro; conditions: MDCK-MDR1
[3] = Kinetic solubility assay (CLND), pH 6.8; type: physicochemical; conditions: aqueous buffer, kinetic from dmso stock; potassium phosphate buffer pH 6.8, 2% DMSO, 24 hours at ambient temperature

Chain of IRAK4 (Q9NWZ3 whole entry): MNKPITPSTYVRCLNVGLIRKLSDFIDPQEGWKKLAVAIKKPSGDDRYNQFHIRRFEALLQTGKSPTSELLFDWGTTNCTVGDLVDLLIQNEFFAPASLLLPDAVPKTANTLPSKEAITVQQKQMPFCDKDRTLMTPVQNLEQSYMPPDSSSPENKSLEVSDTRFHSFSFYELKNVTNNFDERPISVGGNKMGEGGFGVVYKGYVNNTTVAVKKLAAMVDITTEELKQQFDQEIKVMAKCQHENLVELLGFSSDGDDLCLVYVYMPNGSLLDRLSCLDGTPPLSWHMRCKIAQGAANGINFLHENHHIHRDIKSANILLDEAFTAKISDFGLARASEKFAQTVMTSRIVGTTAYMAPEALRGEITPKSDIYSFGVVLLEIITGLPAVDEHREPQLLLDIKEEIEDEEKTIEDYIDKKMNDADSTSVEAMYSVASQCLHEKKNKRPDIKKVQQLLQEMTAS
Chain of MDR1 (P08183 whole entry): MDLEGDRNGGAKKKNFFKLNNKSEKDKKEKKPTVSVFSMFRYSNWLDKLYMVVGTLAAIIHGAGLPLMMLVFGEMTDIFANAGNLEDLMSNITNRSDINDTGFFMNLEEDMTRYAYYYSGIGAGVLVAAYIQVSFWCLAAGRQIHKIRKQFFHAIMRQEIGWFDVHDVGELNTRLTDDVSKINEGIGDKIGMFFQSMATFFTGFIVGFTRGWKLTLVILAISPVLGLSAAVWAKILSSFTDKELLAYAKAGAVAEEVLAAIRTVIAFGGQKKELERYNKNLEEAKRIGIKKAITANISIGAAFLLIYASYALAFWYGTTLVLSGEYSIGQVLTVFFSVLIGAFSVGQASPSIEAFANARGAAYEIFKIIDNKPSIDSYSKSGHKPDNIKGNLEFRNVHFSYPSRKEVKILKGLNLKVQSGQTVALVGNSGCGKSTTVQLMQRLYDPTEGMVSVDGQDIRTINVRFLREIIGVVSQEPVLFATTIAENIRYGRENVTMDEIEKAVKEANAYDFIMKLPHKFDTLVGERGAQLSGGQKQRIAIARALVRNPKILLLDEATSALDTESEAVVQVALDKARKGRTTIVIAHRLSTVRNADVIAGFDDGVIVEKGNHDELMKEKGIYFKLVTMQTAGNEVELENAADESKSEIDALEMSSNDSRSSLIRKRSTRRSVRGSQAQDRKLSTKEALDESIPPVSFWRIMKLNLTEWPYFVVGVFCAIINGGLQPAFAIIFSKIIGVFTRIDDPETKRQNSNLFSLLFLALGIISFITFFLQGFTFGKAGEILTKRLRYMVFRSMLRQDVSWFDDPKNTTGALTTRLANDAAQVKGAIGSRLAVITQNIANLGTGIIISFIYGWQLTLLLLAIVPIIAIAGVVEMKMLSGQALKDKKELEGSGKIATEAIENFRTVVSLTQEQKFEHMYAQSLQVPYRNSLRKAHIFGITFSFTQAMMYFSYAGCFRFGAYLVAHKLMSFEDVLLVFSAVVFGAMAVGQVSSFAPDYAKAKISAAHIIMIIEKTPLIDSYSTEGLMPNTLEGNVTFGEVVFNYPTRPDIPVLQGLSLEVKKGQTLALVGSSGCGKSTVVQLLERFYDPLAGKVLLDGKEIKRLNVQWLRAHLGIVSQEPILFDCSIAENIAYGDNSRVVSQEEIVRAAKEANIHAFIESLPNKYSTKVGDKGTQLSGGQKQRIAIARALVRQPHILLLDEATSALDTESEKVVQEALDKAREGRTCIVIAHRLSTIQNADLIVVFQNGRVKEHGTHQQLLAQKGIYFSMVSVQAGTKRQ

Compound: CC[C@@H](C)Oc1nc2nc([C@]34CC[C@](C)(C3)OC4)cn2cc1C(=O)Nc1cccn(C2CC2)c1=O [Example 51, 7-((R)-sec-butoxy)-N-(1-cyclopropyl-2-oxo-1,2-dihydropyridin-3-yl)-2-((1R,4S)-1-methyl-2-oxabicyclo[2.2.1]heptan-4-yl)imidazo[1,2-a]pyrimidine-6-carboxamide]
IC50 [1]: 1.8 nM | efflux ratio at 120 min, 1 μM [2]: 3.1

Compound: CC[C@@H](C)Oc1nc2nc(C34COC(C)(C3)C4)cn2cc1C(=O)Nc1cccn([C@@H]2C[C@@H]2F)c1=O (single isomer, unassigned) [Example 57]
IC50 [1]: 23 nM | efflux ratio at 120 min, 1 μM [2]: 7.9

Compound: CC(C)Oc1c(C(=O)Nc2cccn([C@@H]3C[C@@H]3F)c2=O)cn2cc([C@@]34CC[C@@](C)(C3)OC4)nc2c1F (single isomer, unassigned) [Example 124]
IC50 [1]: 45.5 nM

Compound: CC(C)Oc1c(C(=O)Nc2cccn([C@@H]3C[C@@H]3F)c2=O)cn2cc(C34COC(C)(C3)C4)nc2c1F (single isomer, unassigned) [Example 92]
IC50 [1]: 61 nM

Compound: CC(C)Oc1c(C(=O)Nc2cccn([C@@H]3C[C@@H]3F)c2=O)cn2cc([C@]34CC[C@](C)(C3)OC4)nc2c1F (single isomer, unassigned) [Example 126]
IC50 [1]: 66.5 nM | efflux ratio at 120 min, 1 μM [2]: 4.4

Compound: C[C@H]1C[C@H]1n1cccc(NC(=O)c2cn3cc(C45COC(C)(C4)C5)nc3nc2OC2CCC2)c1=O [Example 189, 7-cyclobutoxy-2-(1-methyl-2-oxabicyclo[2.1.1]hexan-4-yl)-N-(1-((1R,2S)-2-methylcyclopropyl)-2-oxo-1,2-dihydropyridin-3-yl)imidazo[1,2-a]pyrimidine-6-carboxamide trifluoroacetate]
IC50 [1]: 34.6 nM | efflux ratio at 120 min, 1 μM [2]: 3.4

Compound: CC[C@@H](C)Oc1nc2nc(C34COC(C)(C3)C4)cn2cc1C(=O)Nc1cccn([C@@H]2C[C@@H]2F)c1=O (mixture of isomers) [Example 41, 7-((R)-sec-butoxy)-N-(1-(cis-2-fluorocyclopropyl)-2-oxo-1,2-dihydropyridin-3-yl)-2-(1-methyl-2-oxabicyclo[2.1.1]hexan-4-yl)imidazo[1,2-a]pyrimidine-6-carboxamide]
IC50 [1]: 0.6 nM | efflux ratio at 120 min, 1 μM [2]: 9.1

Compound: O=C(Nc1cccn([C@@H]2C[C@@H]2F)c1=O)c1cn2cc(C34COC(C3)C4)nc2nc1OC1CCC1 (single isomer, unassigned) [Example 166]
IC50 [1]: 41 nM | efflux ratio at 120 min, 1 μM [2]: 2.6

Compound: CC(C)Oc1c(C(=O)Nc2ccnn(C3CC3)c2=O)cn2cc(C34COC(C)(C3)C4)nc2c1F [Example 73, N-(2-cyclopropyl-3-oxo-2,3-dihydropyridazin-4-yl)-8-fluoro-7-isopropoxy-2-(1-methyl-2-oxabicyclo[2.1.1]hexan-4-yl)imidazo[1,2-a]pyridine-6-carboxamide]
IC50 [1]: 14 nM | efflux ratio at 120 min, 1 μM [2]: 1

Compound: CC[C@H](C)Oc1cc2nc(C34COC(C)(C3)C4)cn2cc1C(=O)Nc1cccn(C2CC2F)c1=O (mixture of isomers) [Example 96, 7-((S)-sec-butoxy)-N-(1-cis-(2-fluorocyclopropyl)-2-oxo-1,2-dihydropyridin-3-yl)-2-(1-methyl-2-oxabicyclo[2.1.1]hexan-4-yl)imidazo[1,2-a]pyridine-6-carboxamide]
efflux ratio at 120 min, 1 μM [2]: 10.4 | solubility kinetic at 24 h [3]: 75.7 µg/mL

Compound: CC12CC(c3cn4cc(C(=O)Nc5cccn([C@@H]6C[C@@H]6F)c5=O)c(OC5CCC5)cc4n3)(CO1)C2 (single isomer, unassigned) [Example 172]
IC50 [1]: 27 nM

Compound: CC(C)Oc1cc2nc([C@]34CC[C@](C)(C3)OC4)cn2cc1C(=O)Nc1cccc(C(F)F)n1 (single isomer, unassigned) [Comparator 3A, reference compound]
efflux ratio at 120 min, 1 μM [2]: 0.7 | solubility kinetic at 24 h [3]: 0.8 µg/mL (≈ 1.75 µM)

Compound: CC(C)Oc1cc2nc(C34COC(C)(C3)C4)cn2cc1C(=O)Nc1ccnn(C2CC2)c1=O [Example 76]
efflux ratio at 120 min, 1 μM [2]: 3.6 | solubility kinetic at 24 h [3]: 50.9 µg/mL (≈ 113 µM)

Compound: CC12CC(c3cn4cc(C(=O)Nc5cccn([C@@H]6C[C@@H]6F)c5=O)c(OC5CC5)cc4n3)(CO1)C2 (single isomer, unassigned) [Example 174]
IC50 [1]: 37.5 nM

More lines, in order of falling IC50 [1], values ahead:

IC50 [1]: 11 nM | efflux ratio at 120 min, 1 μM [2]: 2.1
Compound: CC(C)Oc1nc2nc(C34COC(C)(C3)C4)cn2cc1C(=O)Nc1cccn([C@@H]2CC2(C)C)c1=O (single isomer, unassigned) [Example 78]

IC50 [1]: 9.4 nM
Compound: CC(C)Oc1cc2nc([C@]34CC[C@](C)(C3)OC4)cn2cc1C(=O)Nc1cccn([C@@H]2C[C@@H]2F)c1=O (single isomer, unassigned) [Example 170]

IC50 [1]: 9 nM | efflux ratio at 120 min, 1 μM [2]: 9.4
Compound: CC[C@H](C)Oc1nc2nc(C34COC(C)(C3)C4)cn2cc1C(=O)Nc1cccn([C@@H]2C[C@@H]2F)c1=O (single isomer, unassigned) [Example 59]

IC50 [1]: 7.5 nM
Compound: CC(C)Oc1cc2nc([C@@]34CC[C@@](C)(C3)OC4)cn2cc1C(=O)Nc1cccn([C@@H]2C[C@@H]2F)c1=O (single isomer, unassigned) [Example 168]

IC50 [1]: 3.1 nM
Compound: CC[C@H](C)Oc1cc2nc(C34COC(C)(C3)C4)cn2cc1C(=O)Nc1cccn([C@@H]2C[C@@H]2F)c1=O (single isomer, unassigned) [Example 160]

IC50 [1]: 2.7 nM | efflux ratio at 120 min, 1 μM [2]: 1
Compound: CC(C)Oc1nc2nc([C@@]34CC[C@@](C)(C3)OC4)cn2cc1C(=O)Nc1cccn([C@H]2CC23CC3)c1=O (single isomer, unassigned) [Example 150]

IC50 [1]: 1.7 nM | efflux ratio at 120 min, 1 μM [2]: 1.5
Compound: CC(C)Oc1nc2nc([C@]34CC[C@](C)(C3)OC4)cn2cc1C(=O)Nc1cccn([C@@H]2CC23CC3)c1=O (single isomer, unassigned) [Example 153]

IC50 [1]: 1.3 nM | efflux ratio at 120 min, 1 μM [2]: 10.3
Compound: CCOc1nc2nc(C34COC(C)(C3)C4)cn2cc1C(=O)Nc1cccn(C2CC2)c1=O [Example 43, N-(1-cyclopropyl-2-oxo-1,2-dihydropyridin-3-yl)-7-ethoxy-2-(1-methyl-2-oxabicyclo[2.1.1]hexan-4-yl)imidazo[1,2-a]pyrimidine-6-carboxamide]

IC50 [1]: 1.2 nM | efflux ratio at 120 min, 1 μM [2]: 2.6
Compound: CC(C)Oc1nc2nc([C@@]34CC[C@@](C)(C3)OC4)cn2cc1C(=O)Nc1cccn([C@@H]2C[C@H]2C)c1=O (single isomer, unassigned) [Example 148]

IC50 [1]: 1.2 nM | solubility kinetic at 24 h [3]: 37 µg/mL (≈ 77.5 µM)
Compound: CC(C)Oc1nc2nc([C@]34CC[C@](C)(C3)OC4)cn2cc1C(=O)Nc1cccn([C@H]2C[C@@H]2C)c1=O (single isomer, unassigned) [Example 142]

IC50 [1]: 1.1 nM | efflux ratio at 120 min, 1 μM [2]: 1.2
Compound: CC(C)Oc1nc2nc([C@@]34CC[C@@](C)(C3)OC4)cn2cc1C(=O)Nc1cccn([C@@H]2CC23CC3)c1=O (single isomer, unassigned) [Example 151]

IC50 [1]: 1.1 nM
Compound: CC(C)Oc1cc2nc(C34COC(C)(C3)C4)cn2cc1C(=O)Nc1cccn([C@H]2C[C@@H]2C)c1=O [Example 140, 7-isopropoxy-2-(1-methyl-2-oxabicyclo[2.1.1]hexan-4-yl)-N-(1-((1S,2S)-2-methylcyclopropyl)-2-oxo-1,2-dihydropyridin-3-yl)imidazo[1,2-a]pyridine-6-carboxamide]

IC50 [1]: 0.8 nM | efflux ratio at 120 min, 1 μM [2]: 5.1
Compound: CC(C)Oc1c(C(=O)Nc2cccn([C@@H]3C[C@@H]3F)c2=O)cn2cc(C34COC(C)(C3)C4)nc2c1F (racemic) [Example 91, (rac)-Cis-8-fluoro-N-(1-(2-fluorocyclopropyl)-2-oxo-1,2-dihydropyridin-3-yl)-7-isopropoxy-2-(1-methyl-2-oxabicyclo[2.1.1]hexan-4-yl)imidazo[1,2-a]pyridine-6-carboxamide]

IC50 [1]: 0.5 nM | efflux ratio at 120 min, 1 μM [2]: 7
Compound: CC(C)Oc1nc2nc(C[C@H]3CCOC3)cn2cc1C(=O)Nc1cccn(C2CC2)c1=O (single isomer, unassigned) [Example 110]

IC50 [1]: 0.5 nM | solubility kinetic at 24 h [3]: 39.9 µg/mL (≈ 80 µM)
Compound: CC(C)Oc1c(C(=O)Nc2cccn([C@H]3C[C@H]3F)c2=O)cn2cc([C@@]34CC[C@@](C)(C3)OC4)nc2c1F (single isomer, unassigned) [Example 125]

IC50 [1]: 0.4 nM | solubility kinetic at 24 h [3]: 43.2 µg/mL (≈ 90.5 µM)
Compound: CC(C)Oc1nc2nc([C@]34CC[C@](C)(C3)OC4)cn2cc1C(=O)Nc1cccn([C@@H]2C[C@H]2C)c1=O (single isomer, unassigned) [Example 141]

IC50 [1]: 0.4 nM | solubility kinetic at 24 h [3]: 62 µg/mL
Compound: CC(C)Oc1cc2nc([C@@]34CC[C@@](C)(C3)OC4)cn2cc1C(=O)Nc1cccn(C2CC2F)c1=O (mixture of isomers) [Example 99, N-(1-(2-fluorocyclopropyl)-2-oxo-1,2-dihydropyridin-3-yl)-7-isopropoxy-2-((1S,4R)-1-methyl-2-oxabicyclo[2.2.1]heptan-4-yl)imidazo[1,2-a]pyridine-6-carboxamide]

IC50 [1]: 0.3 nM | efflux ratio at 120 min, 1 μM [2]: 10.4
Compound: CC(C)Oc1cc2nc([C@@]34CC[C@@](C)(C3)OC4)cn2cc1C(=O)Nc1cccn([C@H]2C[C@H]2F)c1=O (single isomer, unassigned) [Example 169]

IC50 [1]: 0.3 nM | efflux ratio at 120 min, 1 μM [2]: 3
Compound: CC(C)Oc1nc2nc([C@H]3CCCOC3)cn2cc1C(=O)Nc1cccn(C2CC2)c1=O (single isomer, unassigned) [Example 107]

IC50 [1]: 0.3 nM | efflux ratio at 120 min, 1 μM [2]: 7
Compound: CC(C)Oc1cc2nc(C34CCC(C3)OC4)cn2cc1C(=O)Nc1cccn(C2CC2)c1=O (stereo not drawn) [Example 38, 2-(2-oxabicyclo[2.2.1]heptan-4-yl)-N-(1-cyclopropyl-2-oxo-1,2-dihydropyridin-3-yl)-7-isopropoxyimidazo[1,2-a]pyridine-6-carboxamide]
